Assay results reported in patent US20150337056A1, “Method for Immediately Terminating Radical Polymerizations, Inhibitor Solution, and Use Thereof” (Allessa GmbH, priority 2013, published 2015).

What was measured:
[1] = solutions in N-alkylpyrrolidones (N-methylpyrrolidone, N-ethylpyrrolidone); cited from earlier work
[2] = Solubility and low-temperature stability of inhibitors in (poly)alkylene glycols
[3] = Solubility of phenothiazine in conventional organic solvents; format: physicochemical
Description: Only in the N-methylpyrrolidone already mentioned and in the chemically and toxicologically related dimethylformamide could concentrated solutions of 30 percent by weight or more be prepared.
Tetrahydrofuran and acetone could also be identified as good solvents. Unfortunately these solvents have low boiling points and flashpoints which renders transport, storage and handling of the solutions more difficult.

Compound | low temperature down to which solutions are stable [1] [°C] | temperature dependence of solubility ([2]; in (poly)alkylene glycols, between −20° C. and +20° C., FIG. 1) | solubility in poly(alkylene) glycol(s) ([2]; in poly(alkylene) glycol(s)) | temperature down to which stable solutions are formed ([2]; in poly(alkylene) glycol(s)) [°C] | concentrated solutions that could be prepared ([3]; in N-methylpyrrolidone and in dimethylformamide) [percent by weight] | solubility ([3]; in methanol, ethanol, isopropanol, toluene, cyclohexane or n-hexane) | solvent quality for phenothiazine ([3]; tetrahydrofuran and acetone)
COc1ccc(O)cc1 [MEHQ, hydroquinone monomethyl ether] | −11 | – | – | – | – | – | –
c1ccc2c(c1)Nc1ccccc1S2 [phenothiazine] | −11 | virtually independent of the temperature | readily soluble | −25 | ≥ 30 | 2-3 percent by weight | good solvents
